Like-named read-outs stand apart in the source and are kept apart here.
What was measured:
[1] = test system: U937 human histiocytic leukemia cell line; test: Cellular assay: inhibition of TSQ induced necroptosis, CellTitre-Glo viability; conditions: U937 cells, 48 hours, TSQ cocktail, read-out: Inhibition of TSQ-induced necroptosis (IC50 cell-based assay)
Procedure, shortened: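 U937 cells (20,000/well) treated with compound (10-point, 36 μM top, 1:3) plus TSQ cocktail (hTNF-Fc 100 ng/ml, Smac mimetic 500 nM, Q-VD-OPh 10 μM), 48 h at 37° C., 0.3% DMSO. Viability by CellTitre-Glo ATP luminescence; counter screen without TSQ measured compound-only effects on viability.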

U937 cells = test: Counter screen: cell viability without the TSQ cocktail (off-target effect); design: species or system human
Procedure, shortened: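 U937 cells (20000/well, HT-RPMI + 7.4% FBS) treated with compound (10-point 1:3 dilution from 36 μM, 0.3% DMSO) without the TSQ cocktail for 48 h at 37 °C/5% CO2. Viability read as ATP by CellTiter-Glo luminescence, flagging off-target cytotoxicity.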

human MLKL (full length) = human MLKL (full length) (Homo sapiens (Human), UniProt Q8NB16); test: KINOMEscan binding assay, human MLKL (full length)
Sequence of human MLKL (full length) (Q8NB16 whole entry): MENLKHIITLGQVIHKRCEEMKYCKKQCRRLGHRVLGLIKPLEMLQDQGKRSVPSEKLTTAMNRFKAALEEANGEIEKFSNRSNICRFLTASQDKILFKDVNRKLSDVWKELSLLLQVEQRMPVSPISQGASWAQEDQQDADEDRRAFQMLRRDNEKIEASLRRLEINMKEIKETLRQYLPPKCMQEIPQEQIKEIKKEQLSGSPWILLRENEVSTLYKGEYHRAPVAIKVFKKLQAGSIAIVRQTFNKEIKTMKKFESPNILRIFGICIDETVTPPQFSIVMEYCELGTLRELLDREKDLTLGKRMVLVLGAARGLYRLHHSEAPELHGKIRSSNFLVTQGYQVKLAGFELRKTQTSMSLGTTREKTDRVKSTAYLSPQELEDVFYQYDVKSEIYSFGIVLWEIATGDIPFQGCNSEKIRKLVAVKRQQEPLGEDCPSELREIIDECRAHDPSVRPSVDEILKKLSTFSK
Procedure, shortened: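 Kd values come from dose-response fits to the Hill equation (Hill slope −1, Levenberg–Marquardt least squares). Compound competed with bead-bound ligand for tagged kinase, and remaining kinase was measured by qPCR after elution. Dilution series: 11 points, 3-fold, 1% DMSO final, top 30,000 nM in most runs.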

[2] = Table 23, read-out: Off-target effect (IC50 cell-based assay)
[3] = KINOMEscan, Table 21, read-out: Human MLKL (full-length) (KD)
[4] = Homo sapiens, U-937, Table 26, read-out: Off-target effect (IC50 cell-based assay)
[5] = hMLKL, Table 25, read-out: MLKL (KD)

Row | Molecule | IC50 ([1]; Table 23) | IC50 (U937 cells; [2]) | Kd (human MLKL (full length); [3]) | IC50 ([1]; Homo sapiens, U-937, Table 26) | IC50 (U937 cells; [4]) | Kd (human MLKL (full length); [5])
1 | Nc1ncc(-c2cnn(C3CCOCC3)c2)c2[nH]nc(-c3ccc(NS(=O)(=O)C(F)F)c(OCc4cccc(Cl)c4)c3)c12 [Compound 131] | 10 to 1000 nM | > 10000 nM | 1 to 100 nM |  |  | 
2 | Cc1ncsc1-c1ccc(CNC(=O)[C@@H]2C[C@@H](O)CN2C(=O)[C@@H](NC(=O)COCCOCCn2cc(-c3cnc(N)c4c(-c5ccc(NS(=O)(=O)C(F)F)c(O[C@@H](C)c6ccc(F)cc6)c5)nn(C)c34)cn2)C(C)(C)C)cc1 [Compound 1006, (2S,4R)-1-[(2S)-2-(2-{2-[2-(4-{4-amino-3-[4-(difluoromethanesulfonamido)-3-[(1S)-1-(4-fluorophenyl)ethoxy]phenyl]-1-methyl-1H-pyrazolo[4,3-c]pyridin-7-yl}-1H-pyrazol-1-yl)ethoxy]ethoxy}acetamido)-3,3-dimethylbutanoyl]-4-hydroxy-N-{[4-(4-methyl-1,3-thiazol-5-yl)phenyl]methyl}pyrrolidine-2-carboxamide] |  |  |  | < 1000 nM | 1000 to 10000 nM | < 10 nM
3 | Cc1ncsc1-c1ccc(CNC(=O)[C@@H]2C[C@@H](O)CN2C(=O)[C@@H](NC(=O)CCCCCCn2cc(-c3cnc(N)c4c(-c5ccc(NS(=O)(=O)C(F)F)c(O[C@@H](C)c6ccc(F)cc6)c5)nn(C)c34)cn2)C(C)(C)C)cc1 [Compound 1008, (2S,4R)-1-[(2S)-2-[7-(4-{4-amino-3-[4-(difluoromethanesulfonamido)-3-[(1 S)-1-(4-fluorophenyl)ethoxy]phenyl]-1-methyl-1H-pyrazolo[4,3-c]pyridin-7-yl}-1H-pyrazol-1-yl)heptanamido]-3,3-dimethylbutanoyl]-4-hydroxy-N-{[4-(4-methyl-1,3-thiazol-5-yl)phenyl]methyl}pyrrolidine-2-carboxamide] |  |  |  | < 1000 nM | 1000 to 10000 nM | < 10 nM
4 | Cc1ncsc1-c1ccc(CNC(=O)[C@@H]2C[C@@H](O)CN2C(=O)[C@@H](NC(=O)CCN2CCCC(n3cc(-c4cnc(N)c5c(-c6ccc(NS(=O)(=O)C(F)F)c(O[C@@H](C)c7ccc(F)cc7)c6)nn(C)c45)cn3)C2)C(C)(C)C)cc1 (stereo partly drawn) [Compound 1014, (2S,4R)-1-[(2S)-2-{3-[3-(4-{4-amino-3-[4-(difluoromethanesulfonamido)-3-[(1S)-1-(4-fluorophenyl)ethoxy]phenyl]-1-methyl-1H-pyrazolo[4,3-c]pyridin-7-yl}-1H-pyrazol-1-yl)piperidin-1-yl]propanamido}-3,3-dimethylbutanoyl]-4-hydroxy-N-{[4-(4-methyl-1,3-thiazol-5-yl)phenyl]methyl}pyrrolidine-2-carboxamide] |  |  |  | < 1000 nM | > 10000 nM | 
5 | Cc1ncsc1-c1ccc(CNC(=O)[C@@H]2C[C@@H](O)CN2C(=O)[C@@H](NC(=O)COCCN2CCCC(n3cc(-c4cnc(N)c5c(-c6ccc(NS(=O)(=O)C(F)F)c(O[C@@H](C)c7ccc(F)cc7)c6)nn(C)c45)cn3)C2)C(C)(C)C)cc1 (stereo partly drawn) [Compound 1015, (2S,4R)-1-[(2S)-2-(2-{2-[3-(4-{4-amino-3-[4-(difluoromethanesulfonamido)-3-[(1S)-1-(4-fluorophenyl)ethoxy]phenyl]-1-methyl-1H-pyrazolo[4,3-c]pyridin-7-yl}-1H-pyrazol-1-yl)piperidin-1-yl]ethoxy}acetamido)-3,3-dimethylbutanoyl]-4-hydroxy-N-{[4-(4-methyl-1,3-thiazol-5-yl)phenyl]methyl}pyrrolidine-2-carboxamide] |  |  |  | < 1000 nM | > 10000 nM | < 10 nM
6 | Cc1ncsc1-c1ccc(CNC(=O)[C@@H]2C[C@@H](O)CN2C(=O)[C@@H](NC(=O)COCCN2CCC(n3cc(-c4cnc(N)c5c(-c6ccc(NS(=O)(=O)C(F)F)c(O[C@@H](C)c7ccc(F)cc7)c6)nn(C)c45)cn3)CC2)C(C)(C)C)cc1 [Compound 1018, (2S,4R)-1-[(2S)-2-(2-{2-[4-(4-{4-amino-3-[4-(difluoromethanesulfonamido)-3-[(1S)-1-(4-fluorophenyl)ethoxy]phenyl]-1-methyl-1H-pyrazolo[4,3-c]pyridin-7-yl}-1H-pyrazol-1-yl)piperidin-1-yl]ethoxy}acetamido)-3,3-dimethylbutanoyl]-4-hydroxy-N-{[4-(4-methyl-1,3-thiazol-5-yl)phenyl]methyl}pyrrolidine-2-carboxamide] |  |  |  | < 1000 nM | > 10000 nM | < 10 nM
7 | C[C@H](Oc1cc(-c2nn(C)c3c(-c4cnn(CCCCCCCOc5cccc6c5C(=O)N(C5CCC(=O)NC5=O)C6=O)c4)cnc(N)c23)ccc1NS(=O)(=O)C(F)F)c1ccc(F)cc1 (stereo partly shown) [Compound 1031, N-(4-{4-amino-7-[1-(7-{[2-(2,6-dioxopiperidin-3-yl)-1,3-dioxo-2,3-dihydro-1H-isoindol-4-yl]oxy}heptyl)-1H-pyrazol-4-yl]-1-methyl-1H-pyrazolo[4,3-c]pyridin-3-yl}-2-[(1 S)-1-(4-fluorophenyl)ethoxy]phenyl)-1,1-difluoromethanesulfonamide] |  |  |  | < 1000 nM |  | 10 to 1000 nM
8 | N-(4-(4-amino-1-methyl-7-(1-(1,2,2-trimethylpiperidin-4-yl)-1H-pyrazol-4-yl)-1H-pyrazolo[4,3-c]pyridin-3-yl)-2-((S)-1-(4-fluorophenyl)ethoxy)phenyl)-1,1-difluoromethanesulfonamide [Compound 113] | < 10 nM | > 10000 nM | < 1 nM |  |  | 

From US20250115598A1 (Anaxis Pharma Pty Ltd, priority 2021, published 2025)
